This is an account of results in patent US11021463B2, “Therapeutic inhibitory compounds” (Attune Pharmaceuticals, Inc., priority 2013, dated 2021).

The assay addresses human plasma kallikrein (Homo sapiens (Human), UniProt P03952). In words: In vitro enzyme inhibition of human plasma kallikrein (Pro-Phe-Arg-AMC cleavage). The class given is biochemical. The following applies: human Plasma Kallikrein (Abcam), Pro-Phe-Arg-AMC substrate, 37° C., pH 7.5; read-out: hPK IC50. The method, then: The ability of the compounds disclosed herein to inhibit human plasma kallikrein activity was quantified according to the procedures below.
A 10 mM solution of the test compound was made in DMSO. […] A control tube containing only DMSO is included. 16 μL of each compound test solution was combined with 384 μL of assay buffer (50 mM Tris-HCl pH 7.5, 150 mM NaCl, 0.01% Triton X-100) to yield a “4× test compound buffer stock”.
These solutions are hereby referred to as 4× hPK and 2×PFR-AMC, respectively.
50 μL was removed from this mixture and placed into duplicate wells on a Microfluor 1Black U-bottom microtiter plate (Thermo Scientific). This plate was incubated for 5 minutes at 37° C. To each well, 50 μL of pre-warmed 2×PFR-AMC was added to start the enzymatic reaction. Cleavage of PFR-AMC was monitored in a Biotek Synergy H4 reader set at 37° C. Readings are taken every 43 seconds for 1 hour. […] The IC50 is calculated using the Gen5 (Biotek Instruments).
The ability of the compounds in Table 3 to inhibit human plasma kallikrein activity was determined.

human plasma kallikrein, sequence (P03952 391-638 limits assumed): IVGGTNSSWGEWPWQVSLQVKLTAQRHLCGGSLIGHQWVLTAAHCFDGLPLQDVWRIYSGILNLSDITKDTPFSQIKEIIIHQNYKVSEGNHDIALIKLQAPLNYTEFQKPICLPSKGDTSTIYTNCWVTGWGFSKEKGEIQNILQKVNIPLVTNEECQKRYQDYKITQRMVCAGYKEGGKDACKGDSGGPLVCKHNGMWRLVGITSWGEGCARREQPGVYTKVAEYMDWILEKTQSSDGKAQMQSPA
human plasma kallikrein, sequence (P03952 20-390 partner limits assumed): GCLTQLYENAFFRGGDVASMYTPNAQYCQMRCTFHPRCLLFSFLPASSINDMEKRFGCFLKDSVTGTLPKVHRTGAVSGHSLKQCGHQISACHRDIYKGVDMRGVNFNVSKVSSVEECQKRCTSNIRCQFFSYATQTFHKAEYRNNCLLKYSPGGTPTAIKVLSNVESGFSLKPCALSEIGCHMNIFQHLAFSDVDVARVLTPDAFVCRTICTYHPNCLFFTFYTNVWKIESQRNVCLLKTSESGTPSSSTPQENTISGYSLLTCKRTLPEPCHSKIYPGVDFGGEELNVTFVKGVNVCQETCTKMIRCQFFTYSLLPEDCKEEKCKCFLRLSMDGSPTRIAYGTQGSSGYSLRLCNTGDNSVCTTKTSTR

In general, IC50 refers to the concentration that gives 50% inhibition. Consider “N-((6-amino-2,4-dimethylpyridin-3-yl)methyl)-2-((5-methyl-3a,7a-dihydro-1H-indazol-1-yl)methyl)isonicotinamide [Example 108]”, for which the IC50 was less than 100 nM.
